# Experimental data reported in patent US20180296588A1, “COMBINATION THERAPY FOR TREATING VIRAL INFECTIONS” (ContraVir Pharmaceuticals, Inc., priority 2017, published 2018).
# “Also recorded” adds a separate entry of the source. Read-outs that look alike come from different tables or passages of the source.
# Legend:
# [1] = test system: HBV DNA replication in DES19 cells; assay: Inhibition of intracellular HBV DNA replication in HepDES19 cells (PCR); assay type: cell-based; conditions: Hepatitis B virus
# Method: (§1) The antiviral activity of Compound I and Compound II towards HBV was tested in various cell lines (HepAD38, HepDE19 and HepDES19). The HepAD38 cell line is derived from the HepG2 cell line and engineered to stably maintain HBV (see Ladner et al., Antimicrobial Agents and Chemotherapy, 1997, 41, 1715-1720, which is incorporated herein by reference in its entirety). DE19 and DES19 cell lines are human hepatoma derived cell lines (see Guo et al. J. Virol 2007, 81, 12472-84, which is incorporated herein by reference in its entirety). Active HBV replication in the cells was suppressed by inclusion of tetracycline in the cell culture medium, which binds to a tetracycline-sensitive promoter, and induced by removal of tetracycline. HBV replication was quantified by measuring the amount of HBV DNA in the cells.
# (§2) Compound I and Compound II were applied to induced cells (i.e., cells without tetracycline), either alone or in combination at various concentrations. Next, intracellular DNA was isolated and HBV DNA was measured by polymerase chain reaction (PCR). The percent inhibition of HBV DNA was examined over the concentration ranges of 0-320 nM for Compound I and 0-640 nM for Compound II. Concentration versus effect curves were constructed for both drugs (FIGS. 1A and 1B, 2A and 2B, and 3A and 3B). […] See FIGS. 1B, 2B, and 3B (curves where [Compound II]=0).
# (§3) The level of reduction in intracellular HBV DNA by the various combinations of Compound I and II as plotted in FIGS. 1 A and 1B, 2A and 2B, and 3A and 3B, was analyzed using the Shipman-Prichard synergy scoring program (MacSynergy™ II program, Prichard et al. Antiviral Research 1990), wherein the experimentally observed effect of each combination is compared to the theoretical, additive inhibition. The comparison is used to determine combination scores (effect volumes) that represent either synergistic (positive scores) or antagonistic (negative scores) effects. All the positive and negative scores are summed to calculate overall synergy and antagonism scores that reflect the entire concentration spectrum of the two drugs. The magnitude of the scores reflect the degree of synergism/antagonism and the likelihood of the synergistic/antagonistic activities being important in vivo, according to the following four categories: (1) Synergy/Antagonism Volume=0-25 (log volume <2): insignificant synergy/antagonism (i.e., only additive effects); (2) Synergy/Antagonism Volume=25-50 (log volume 2-5): minor but significant amount of synergy/antagonism; (3) Synergy/Antagonism Volume=50-100 (log volume 5-9): moderate synergy/antagonism that may be important in vivo; (4) Synergy/Antagonism Volume >100 (log volume >9): stronger synergy/antagonism that is probably important in vivo. IC50 values for Compound I in combination with different concentrations of Compound II, and Compound II in combination with different concentrations of Compound I, are presented in Tables 6 and 7, respectively.
# [2] = test system: HBV DNA replication in DE19 cells; assay: Inhibition of intracellular HBV DNA replication in HepDE19 cells (PCR); assay type: cell-based; conditions: Hepatitis B virus
# Method: as §1, §2, §3
# [3] = test system: HBV DNA replication in AD38, DES19 and DE19 cells; assay: In vitro combination study, statements covering AD38, DES19 and DE19 cells together; assay type: cell-based, hepatitis B virus; conditions: Compound I 5-320 nM and/or Compound II 10-640 nM; FIGS. 1-3
# Method: The antiviral activity of Compound I and Compound II towards HBV was tested in various cell lines (HepAD38, HepDE19 and HepDES19). […] Active HBV replication in the cells was suppressed by inclusion of tetracycline in the cell culture medium, which binds to a tetracycline-sensitive promoter, and induced by removal of tetracycline. HBV replication was quantified by measuring the amount of HBV DNA in the cells.
# The comparison is used to determine combination scores (effect volumes) that represent either synergistic (positive scores) or antagonistic (negative scores) effects. All the positive and negative scores are summed to calculate overall synergy and antagonism scores that reflect the entire concentration spectrum of the two drugs. […]
# [4] = test system: HBV DNA replication in HepAD38 cells; assay: Inhibition of intracellular HBV DNA replication in HepAD38 cells (PCR); assay type: cell-based; conditions: Hepatitis B virus
# Method: as §1, §2, §3
# HBV = assay: Anti-HBV effects in the HBV transgenic mouse model; assay type: in vivo, HBV transgenic mice; conditions: for serum HBsAg / liver HBsAg / serum HBV DNA / serum HBeAg: oral, 16 days; for serum HBsAg: FIG. 7; for liver HBsAg / serum HBV DNA / serum HBeAg: alone or in combination; for liver HBsAg: FIG. 8; for serum HBV DNA: FIG. 9; for serum HBeAg: FIG. 10; for liver HBV DNA (copies per mg liver): once-daily oral gavage 16 days, Compound I 10 or 50, Compound II 5 or 10 mg/kg/day, combination 10+5, FIG. 6
# Method: (§4) Compound I and Compound II were administered by once-daily oral gavage for 16 days to HBV transgenic mice which replicated HBV from a 1.3× overlength HBV genome integrated into the mouse genome. Expression occurred mostly in hepatocytes.
# Treatment Groups (n=8/Group):
# After 16 days of dosing, livers and serum were harvested and the following parameters were measured: a) HBV DNA by quantitative PCR (liver and serum) b) HBsAg by ELISA (liver and serum) c) HBeAg by ELISA (serum)
# [5] = Compound I concentration in serum by liquid chromatography-mass spectrometry; assay type: in vivo, HBV transgenic mice; conditions: 3-hr post-dose on Day 16 of dosing; FIG. 11
# Method: as §4
# Compound I Concentrations were Measured by Liquid Chromatography-Mass Spectrometry (Serum)
smiles,measurement,setting,value
"CCCCCCCCCCCCCCCCOCCCOP(=O)(O)CO[C@H](C)Cn1cnc2c(N)ncnc21 [Compound II, 3-(hexadecyloxy)propyl hydrogen ((R)-1-(6-amino-9H-purin 9-yl)propan-2-yloxy)methylphosphonate]",IC50,"[1]; HepDES19, read-out: IC50 for Compound II, DES19 cells, Compound I 0 nM",252 nM
same,IC50,"[1]; HepDES19, read-out: IC50 for Compound II, DES19 cells, Compound I 5 nM",237 nM
same,IC50,"[1]; HepDES19, read-out: IC50 for Compound II, DES19 cells, Compound I 10 nM",228 nM
same,IC50,"[1]; HepDES19, read-out: IC50 for Compound II, DES19 cells, Compound I 20 nM",180 nM
same,IC50,"[1]; HepDES19, read-out: IC50 for Compound II, DES19 cells, Compound I 40 nM",190 nM
same,IC50,"[1]; HepDES19, read-out: IC50 for Compound II, DES19 cells, Compound I 80 nM",188 nM
same,IC50,"[1]; HepDES19, read-out: IC50 for Compound II, DES19 cells, Compound I 160 nM",86.6 nM
same,IC50,"[1]; HepDES19, read-out: IC50 for Compound II, DES19 cells, Compound I 320 nM",63.2 nM
same,IC50,"[2]; HepDE19, read-out: IC50 for Compound II, DE19 cells, Compound I 0 nM",253 nM
same,IC50,"[2]; HepDE19, read-out: IC50 for Compound II, DE19 cells, Compound I 5 nM",270 nM
same,IC50,"[2]; HepDE19, read-out: IC50 for Compound II, DE19 cells, Compound I 10 nM",255 nM
same,IC50,"[2]; HepDE19, read-out: IC50 for Compound II, DE19 cells, Compound I 20 nM",213 nM
same,IC50,"[2]; HepDE19, read-out: IC50 for Compound II, DE19 cells, Compound I 40 nM",237 nM
same,IC50,"[2]; HepDE19, read-out: IC50 for Compound II, DE19 cells, Compound I 80 nM",226 nM
same,IC50,"[2]; HepDE19, read-out: IC50 for Compound II, DE19 cells, Compound I 160 nM",83.9 nM
same,IC50,"[2]; HepDE19, read-out: IC50 for Compound II, DE19 cells, Compound I 320 nM",110 nM
same,intracellular HBV DNA compared to induced cells in the absence of the drug,[3],reduced intracellular HBV DNA in a concentration-dependent manner
same,IC50,"[4]; HePAD38, read-out: IC50 for Compound II, AD38 cells, Compound I 0 nM",248 nM
same,IC50,"[4]; HePAD38, read-out: IC50 for Compound II, AD38 cells, Compound I 5 nM",259 nM
same,IC50,"[4]; HePAD38, read-out: IC50 for Compound II, AD38 cells, Compound I 10 nM",255 nM
same,IC50,"[4]; HePAD38, read-out: IC50 for Compound II, AD38 cells, Compound I 20 nM",232 nM
same,IC50,"[4]; HePAD38, read-out: IC50 for Compound II, AD38 cells, Compound I 40 nM",232 nM
same,IC50,"[4]; HePAD38, read-out: IC50 for Compound II, AD38 cells, Compound I 80 nM",229 nM
same,IC50,"[4]; HePAD38, read-out: IC50 for Compound II, AD38 cells, Compound I 160 nM",104 nM
same,IC50,"[4]; HePAD38, read-out: IC50 for Compound II, AD38 cells, Compound I 320 nM",99.7 nM
same,serum HBsAg,HBV; Compound II alone (5 or 10 mg/kg/day) or with low-dose Compound I (10 mg/kg/day),did not affect serum HBsAg
same,liver HBsAg,HBV,did not affect
same,serum HBV DNA,HBV,did not affect
same,serum HBeAg,HBV,did not affect
same,liver HBV DNA (copies per mg liver),HBV,decreased liver HBV DNA; also recorded: highly efficacious
CC[C@@H]1NC(=O)C([C@H](O)[C@H](C)CCCCCCNC(C)=O)N(C)C(=O)[C@@H](C(C)C)N(C)C(=O)[C@H](CC(C)C)N(C)C(=O)[C@H](CC(C)C)N(C)C(=O)[C@H](C)NC(=O)[C@H](C)NC(=O)[C@@H](CC(C)C)N(C)C(=O)[C@H](C(C)C)NC(=O)[C@H](CC(C)C)N(C)C(=O)[C@H](C)N(C)C1=O (stereo partly shown) [Compound I],IC50,"[1]; HepDES19, read-out: IC50 for Compound I, DES19 cells, Compound II 0 nM",33.4 nM
same,IC50,"[1]; HepDES19, read-out: IC50 for Compound I, DES19 cells, Compound II 10 nM",29.1 nM
same,IC50,"[1]; HepDES19, read-out: IC50 for Compound I, DES19 cells, Compound II 20 nM",27.2 nM
same,IC50,"[1]; HepDES19, read-out: IC50 for Compound I, DES19 cells, Compound II 40 nM",26.4 nM
same,IC50,"[1]; HepDES19, read-out: IC50 for Compound I, DES19 cells, Compound II 80 nM",27.8 nM
same,IC50,"[1]; HepDES19, read-out: IC50 for Compound I, DES19 cells, Compound II 160 nM",34.7 nM
same,IC50,"[1]; HepDES19, read-out: IC50 for Compound I, DES19 cells, Compound II 320 nM",32.4 nM
same,IC50,"[1]; HepDES19, read-out: IC50 for Compound I, DES19 cells, Compound II 640 nM",22.9 nM
same,IC50,"[2]; HepDE19, read-out: IC50 for Compound I, DE19 cells, Compound II 0 nM",32.9 nM
same,IC50,"[2]; HepDE19, read-out: IC50 for Compound I, DE19 cells, Compound II 10 nM",29.5 nM
same,IC50,"[2]; HepDE19, read-out: IC50 for Compound I, DE19 cells, Compound II 20 nM",26 nM
same,IC50,"[2]; HepDE19, read-out: IC50 for Compound I, DE19 cells, Compound II 40 nM",27.3 nM
same,IC50,"[2]; HepDE19, read-out: IC50 for Compound I, DE19 cells, Compound II 80 nM",27.8 nM
same,IC50,"[2]; HepDE19, read-out: IC50 for Compound I, DE19 cells, Compound II 160 nM",33.6 nM
same,IC50,"[2]; HepDE19, read-out: IC50 for Compound I, DE19 cells, Compound II 320 nM",37.5 nM
same,IC50,"[2]; HepDE19, read-out: IC50 for Compound I, DE19 cells, Compound II 640 nM",23.3 nM
same,intracellular HBV DNA compared to induced cells in the absence of the drug,[3],reduced intracellular HBV DNA in a concentration-dependent manner
same,serum Compound I concentration,[5],correlated with the effects of Compound I on HBV DNA and HBsAg
same,IC50,"[4]; HePAD38, read-out: IC50 for Compound I, AD38 cells, Compound II 0 nM",32.1 nM
same,IC50,"[4]; HePAD38, read-out: IC50 for Compound I, AD38 cells, Compound II 10 nM",31 nM
same,IC50,"[4]; HePAD38, read-out: IC50 for Compound I, AD38 cells, Compound II 20 nM",26.5 nM
same,IC50,"[4]; HePAD38, read-out: IC50 for Compound I, AD38 cells, Compound II 40 nM",29.9 nM
same,IC50,"[4]; HePAD38, read-out: IC50 for Compound I, AD38 cells, Compound II 80 nM",29.5 nM
same,IC50,"[4]; HePAD38, read-out: IC50 for Compound I, AD38 cells, Compound II 160 nM",34.5 nM
same,IC50,"[4]; HePAD38, read-out: IC50 for Compound I, AD38 cells, Compound II 320 nM",38.2 nM
same,IC50,"[4]; HePAD38, read-out: IC50 for Compound I, AD38 cells, Compound II 640 nM",21 nM
same,liver HBsAg,HBV,did not affect
same,serum HBV DNA,HBV,did not affect
same,serum HBeAg,HBV,did not affect
same,serum HBsAg,HBV; high-dose Compound I (50 mg/kg/day),decreased serum HBsAg; also recorded: able to lower serum HBsAg levels
same,liver HBV DNA (copies per mg liver),HBV,decreased liver HBV DNA; also recorded: highly efficacious
